Experimental data as given in patent US20260146274A1, “RECOMBINANT SMALL-MOLECULE COLLAGEN, EXPRESSION SYSTEM THEREOF, AND PREPARATION METHOD THEREOF” (JIANGSU TRAUTEC MEDICAL TECHNOLOGY CO., LTD., priority 2023, published 2026).

Tested on: NIH/3T3 cell
Assay: Cell adhesion activity detection (LDH kit, OD492 nm)
Format: cell-based
Conditions: for cell adhesion activity (absorbance at OD492 nm) compared with natural human collagen: protein coated at 0.5 mg/mL, NIH/3T3 cells, 60 minutes, FIG. 26
Method: References for Detection Method for Cell Adhesion Activity of Recombinant Small-Molecule Collagen: Juming Yao, Satoshi Yanagisawa, Tetsuo Asakura. Design, Expression and Characterization of Collagen-Like Proteins Based on the Cell Adhesive and Crosslinking Sequences Derived from natural Collagens, J Biochem. 136, 643-649 (2004).
Specific implementation method: A NIH/3T3 cell was cultured under standard conditions (purchased from Cell Bank of the Chinese Academy of Sciences, with catalog number of GNM6. Culture and passage methods followed a cell instruction). […] A natural human collagen (Sigma, Catalog No. C7774) was compared to a bovine serum albumin solution (BSA, purchased from Sangon Biotech (Shanghai) Co., Ltd.) (in ultrapure water or 1M HCl solution). Protein concentration was determined using the UV protein quantification empirical formula: C (mg/mL)=0.144×(A215-A225). Then, the protein was diluted to 0.5 mg/mL with PBS (pH 7.4).
100 μL of various protein solutions and blank PBS solution were added to a 96-well cell culture plate, and set aside 60 minutes at room temperature. Then, […] NIH/3T3 cells with good culture status were added to each well, and incubated at 37° C. and 5% CO2 for 60 minutes. The cells were cleaned in the wells 4 times with PBS. An absorbance value at OD492 nm was detected using a LDH detection kit (Roche, 04744926001). Data were analyzed and subject to significant differential analysis (SPSS 22 software, Duncan's method, P<0.05).
The absorbance value at OD492 nm characterized the cell adhesion activity of a collagen sample: higher adhesion activity indicated more cells adhering to the protein.

[1] = equivalent concentrations (0.5 mg/mL), NIH/3T3, Duncan's method P<0.05

Q: How did the “cell adhesion activity compared with larger-molecular-weight recombinant type-XVII collagen” value [1] turn out when “17S1NNT: 82 amino acids, positions 636 to 718 of full-length human collagen XVII, SEQ ID NO.5” was run?
A: The value was “no significant difference”.

Q: What about the “cell adhesion activity (absorbance at OD492 nm) compared with natural human collagen” value of the same molecule?
A: Its value is “comparable to or superior to that of a natural human collagen”.

B1: 3A5D1NT: 96 amino acids, positions 990 to 1085 of full-length human type III collagen, SEQ ID NO.1 (protein, listed as Homo sapiens)
chain: DGNPGSDGLPGRDGSPGGKGDRGENGSPGAPGAPGHPGPPGPVGPAGKSGDRGESGPAGPAGAPGPAGSRGAPGPQGPRGDKGETGERGAAGIKGH
modifications: Recombinant small-molecule collagen 3A5D1NT
Q: How did the “cell adhesion activity compared with larger-molecular-weight recombinant type-III collagen” value [1] turn out when B1 was run?
A: Its value is “significantly outperformed”.

Q: What about the “cell adhesion activity (absorbance at OD492 nm) compared with natural human collagen” value of the same molecule?
A: The value was “comparable to or superior to that of a natural human collagen”.
